Assay results published in patent EP0554400B1, “RETROVIRAL PROTEASE INHIBITORS” (MONSANTO COMPANY, priority 1990, dated 1992).

Assays:
HIV-1 = experiment: HIV inhibition assay of acutely infected CEM cells (tetrazolium/MTT colorimetric); format: cell-based; conditions: Table 7, CEM cells acutely infected with HIV-1, 7 days, MTT
Procedure: The effectiveness of the compounds listed in Table 7 were determined in the above-described enzyme assay and in a CEM cell assay.
(§1) Methods 20, 309-321 (1988).

HIV protease = target: T1, HIV protease (Human immunodeficiency virus type 1 group M subtype B, UniProt P04585); experiment: HIV protease enzyme assay (fluorogenic substrate 2-aminobenzoyl-Ile-Nle-Phe(p-NO2)-Gln-ArgNH2); format: biochemical
T1 construct: HIV protease is diluted in the assay buffer to a final enzyme concentration of 12.3 nanomolar, based on a molecular weight of 10,780
Description: The compounds of the present invention are effective HIV protease inhibitors. Utilizing an enzyme assay as described below, the compounds set forth in the examples herein disclosed inhibited the HIV enzyme. The preferred compounds of the present invention and their calculated IC50 (inhibiting concentration 50%, i.e., the concentration at which the inhibitor compound reduces enzyme activity by 50%) values are shown in Table 6. The enzyme method is described below. The substrate is 2-aminobenzoyl-Ile-Nle-Phe(p-NO2)-Gln-ArgNH2. The positive control is MVT-101 (Miller, M. et al, Science, 246, 1149 (1989)] The assay conditions are as follows: Assay buffer: • 20 mM sodium phosphate, pH 6.4 • 20% glycerol • 1 mM EDTA • 1 mM DTT • 0.1% CHAPS
The above described substrate is dissolved in DMSO, then diluted 10 fold in assay buffer. Final substrate concentration in the assay is 80 µM.
HIV protease is diluted in the assay buffer to a final enzyme concentration of 12.3 nanomolar, based on a molecular weight of 10,780.
The final concentration of DMSO is 14% and the final concentration of glycerol is 18%. The test compound is dissolved in DMSO and diluted in DMSO to 10x the test concentration; 10 µl of the enzyme preparation is added, the materials mixed and then the mixture is incubated at ambient temperature for 15 minutes. The enzyme reaction is initiated by the addition of 40µl of substrate. The increase in fluorescence is monitored at 4 time points (0, 8, 16 and 24 minutes) at ambient temperature. Each assay is carried out in duplicate wells.

CEM cells = experiment: Intrinsic toxicity of test compound in uninfected CEM cells (MTT); format: cell-based; conditions: Table 7, CEM cells without virus, 7 days, read-out: TD50 (the source's name)
Description: as §1

[1] = Table 6, 80 µM substrate, 12.3 nanomolar enzyme, pH 6.4
[2] = Table 7, above-described enzyme assay

Molecule | EC50 (HIV-1; Human immunodeficiency virus 1, CCRF-CEM, 168 h) | IC50 (HIV protease; [1]) | EC50 (HIV-1) | CC50 (CEM cells) | IC50 (HIV protease; [2])
COc1ccc(COC(=O)N[C@@H](Cc2ccccc2)[C@H](O)CN(CCC(C)C)C(=O)NC(C)(C)C)cc1 (relative stereo) [Carbamic acid, [3-[[[(1,1-dimethylethyl)amino]carbonyl](3-methylbutyl)amino]-2-hydroxy-1-(phenylmethyl)propyl]-, (4-methoxyphenyl)methyl ester, [1S-[1R*,2S*]]] | 820 nM | 489 nM |  |  | 
CC(C)C[C@H](NC(=O)[C@@H](N)Cc1ccccc1)C(=O)NC(=O)NC[C@H](O)[C@H](Cc1ccccc1)NC(=O)OC(C)(C)C [(2S,3S)-3-(N-1,1-dimethylethoxycarbonyl)amido-1-(L-phenylalanyl-L-leucylcarbamoyl)amino-4-phenyl butanol] |  | 5000 nM | 13000 nM | 54000 nM | 5000 nM
Phenylmethylamide, N-[3-[[[(1,1-dimethylethyl)amino]carbonyl](3-methylbutyl)amino]-2-hydroxy-1-(phenylmethyl)propyl]-3,3-dimethyl-, [1S-[1R*,2S*]] |  | 850 nM |  |  | 850 nM
CC(C)CCN(C[C@@H](O)[C@H](Cc1ccccc1)NC(=O)OCc1ccccc1)C(=O)NC(C)(C)C (relative stereo) [Carbamic acid, [3-[[[(1,1-dimethylethyl)amino]carbonyl](3-methylbutyl)amino]-2-hydroxy-1-(phenylmethyl)propyl]-, phenylmethyl ester, [1S-[1R*,2S*]]] |  | 112 nM |  |  | 
